According to the supplement of paper PMC10307832:

Legend:
Assay in all cases: relative viability (nuclei count vs DMSO), 5 days (fraction); higher = more cells survive
[1] = system: NCI-H441
Summary of the method: (§1)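 Cells from lung cancer lines were seeded into 1536-well plates and, one day later, dosed by pin tool. Treatments were either a single drug or a fixed dose of an anchor drug with five library-drug doses (not always all listed) in √10 steps. After 5 days, nuclei were stained in a one-step fixation (final 0.05% Triton X-100, 1% formaldehyde, 1 ug/ml Hoechst) and counted on 4× images, and relative viability is the treated-to-vehicle nuclei ratio, as the median of duplicate plates.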

[2] = system: NCI-H1355
Summary of the method: as §1

[3] = system: NCI-H1975
Summary of the method: as §1

[4] = system: LOU-NH91
Summary of the method: as §1

[5] = system: HCC-366
Summary of the method: as §1

[6] = system: NCI-H838
Summary of the method: as §1

[7] = system: NCI-H2023
Summary of the method: as §1

[8] = system: NCI-H1734
Summary of the method: as §1

[9] = system: COR-L23
Summary of the method: as §1

[10] = system: LU99A
Summary of the method: as §1

[11] = system: NCI-H460
Summary of the method: as §1

[12] = system: NCI-H1793
Summary of the method: as §1

[13] = system: CAL-12T
Summary of the method: as §1

[14] = system: NCI-H1650
Summary of the method: as §1

[15] = system: NCI-H1651
Summary of the method: as §1

[16] = system: BEN
Summary of the method: as §1

[17] = system: SK-LU-1
Summary of the method: as §1

[18] = system: NCI-H1437
Summary of the method: as §1

[19] = system: NCI-H2085
Summary of the method: as §1

In the case of `Cc1sc2c(c1C)C(c1ccc(Cl)cc1)=N[C@@H](CC(=O)OC(C)(C)C)c1nnc(C)n1-2` [JQ1] + CC1(C)CCC(c2ccc(Cl)cc2)=C(CN2CCN(c3ccc(C(=O)NS(=O)(=O)c4ccc(N[C@H](CCN5CCOCC5)CSc5ccccc5)c(S(=O)(=O)C(F)(F)F)c4)cc3)CC2)C1 [Navitoclax] (partner 0.5 µM), the relative viability ([1]; first compound 0.04 µM) is reported as 0.834, the relative viability ([1]; first compound 0.1265 µM) is reported as 0.684 and the relative viability ([1]; first compound 0.4 µM) is reported as 0.54. It also gave a relative viability ([1]; first compound 1.265 µM) of 0.528, a relative viability ([1]; first compound 4 µM) of 0.408 and a relative viability ([2]; first compound 0.04 µM) of 0.87. For the same compound, the relative viability ([2]; first compound 0.1265 µM) was 0.972, the relative viability ([2]; first compound 0.4 µM) was 0.85 and the relative viability ([2]; first compound 1.265 µM) was 0.52. For the same compound, the relative viability ([2]; first compound 4 µM) was 0.476, the relative viability ([3]; first compound 0.04 µM) was 1.1 and the relative viability ([3]; first compound 0.1265 µM) was 0.715. It also gave a relative viability ([3]; first compound 0.4 µM) of 0.821, a relative viability ([3]; first compound 1.265 µM) of 0.336 and a relative viability ([3]; first compound 4 µM) of 0.266. It also gave a relative viability ([4]; first compound 0.04 µM) of 0.637, a relative viability ([4]; first compound 0.1265 µM) of 0.606 and a relative viability ([4]; first compound 0.4 µM) of 0.413. The relative viability ([4]; first compound 1.265 µM) was 0.411, the relative viability ([4]; first compound 4 µM) was 0.429 and the relative viability ([5]; first compound 0.04 µM) was 1.05. The relative viability ([5]; first compound 0.4 µM) was 0.915, the relative viability ([5]; first compound 1.265 µM) was 0.63 and the relative viability ([5]; first compound 4 µM) was 0.115. For the same compound, the relative viability ([6]; first compound 0.04 µM) was 1.1, the relative viability ([6]; first compound 0.1265 µM) was 0.592 and the relative viability ([6]; first compound 0.4 µM) was 0.662. For the same compound, the relative viability ([6]; first compound 1.265 µM) was 0.355, the relative viability ([6]; first compound 4 µM) was 0.247 and the relative viability ([7]; first compound 0.04 µM) was 0.98. The relative viability ([7]; first compound 0.1265 µM) was 0.915, the relative viability ([7]; first compound 0.4 µM) was 0.846 and the relative viability ([7]; first compound 1.265 µM) was 0.334. The relative viability ([7]; first compound 4 µM) was 0.369, the relative viability ([8]; first compound 0.04 µM) was 0.849 and the relative viability ([8]; first compound 0.1265 µM) was 0.825. The relative viability ([8]; first compound 0.4 µM) was 0.83, the relative viability ([8]; first compound 1.265 µM) was 0.407 and the relative viability ([8]; first compound 4 µM) was 0.233. It also gave a relative viability ([9]; first compound 0.04 µM) of 1.02, a relative viability ([9]; first compound 0.1265 µM) of 0.763 and a relative viability ([9]; first compound 0.4 µM) of 0.858. The relative viability ([9]; first compound 1.265 µM) was 0.357, the relative viability ([9]; first compound 4 µM) was 0.155 and the relative viability ([10]; first compound 0.04 µM) was 0.746. It also gave a relative viability ([10]; first compound 0.1265 µM) of 0.699, a relative viability ([10]; first compound 0.4 µM) of 0.201 and a relative viability ([10]; first compound 1.265 µM) of 0.137. For the same compound, the relative viability ([10]; first compound 4 µM) was 0.146, the relative viability ([11]; first compound 0.04 µM) was 1.02 and the relative viability ([11]; first compound 0.1265 µM) was 0.671. The relative viability ([11]; first compound 0.4 µM) was 0.499, the relative viability ([11]; first compound 1.265 µM) was 0.0782 and the relative viability ([11]; first compound 4 µM) was 0.0465. It also gave a relative viability ([12]; first compound 0.04 µM) of 0.408, a relative viability ([12]; first compound 0.1265 µM) of 0.345 and a relative viability ([12]; first compound 0.4 µM) of 0.515. It also gave a relative viability ([12]; first compound 1.265 µM) of 0.444, a relative viability ([12]; first compound 4 µM) of 0.377 and a relative viability ([13]; first compound 0.04 µM) of 1.12. It also gave a relative viability ([13]; first compound 0.1265 µM) of 1.29, a relative viability ([13]; first compound 0.4 µM) of 0.701 and a relative viability ([13]; first compound 1.265 µM) of 0.295. The relative viability ([13]; first compound 4 µM) was 0.408, the relative viability ([14]; first compound 0.04 µM) was 1.09 and the relative viability ([14]; first compound 0.1265 µM) was 0.998. The relative viability ([14]; first compound 0.4 µM) was 0.655, the relative viability ([14]; first compound 1.265 µM) was 0.24 and the relative viability ([14]; first compound 4 µM) was 0.169. The relative viability ([15]; first compound 0.04 µM) was 0.928, the relative viability ([15]; first compound 0.1265 µM) was 0.819 and the relative viability ([15]; first compound 0.4 µM) was 0.701. It also gave a relative viability ([15]; first compound 1.265 µM) of 0.525, a relative viability ([15]; first compound 4 µM) of 0.439 and a relative viability ([16]; first compound 0.04 µM) of 0.0812. The relative viability ([16]; first compound 0.1265 µM) was 0.082, the relative viability ([16]; first compound 0.4 µM) was 0.0765 and the relative viability ([16]; first compound 1.265 µM) was 0.0678. It also gave a relative viability ([16]; first compound 4 µM) of 0.0582, a relative viability ([17]; first compound 0.04 µM) of 0.841 and a relative viability ([17]; first compound 0.1265 µM) of 0.784. It also gave a relative viability ([17]; first compound 0.4 µM) of 0.791, a relative viability ([17]; first compound 1.265 µM) of 0.0557 and a relative viability ([17]; first compound 4 µM) of 0.0951. For the same compound, the relative viability ([18]; first compound 0.04 µM) was 1.03, the relative viability ([18]; first compound 0.1265 µM) was 0.798 and the relative viability ([18]; first compound 0.4 µM) was 0.693. It also gave a relative viability ([18]; first compound 1.265 µM) of 0.325, a relative viability ([18]; first compound 4 µM) of 0.306 and a relative viability ([19]; first compound 0.04 µM) of 1.08. The relative viability ([19]; first compound 0.1265 µM) was 1.1, the relative viability ([19]; first compound 0.4 µM) was 0.902 and the relative viability ([19]; first compound 1.265 µM) was 0.561. The relative viability ([19]; first compound 4 µM) was 0.643.
